Reference: PubChem BioAssay (NCI)
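These data come from cells grown in 96-well plates and exposed to compound for 48 hours at five concentrations. TGI is the concentration that stops growth completely.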

What was measured:
Experiment in all cases: DTP human tumour cell line panel, 48 h
LOX IMVI melanoma = test system: LOX IMVI melanoma
MDA-MB-231 breast = test system: MDA-MB-231 breast
DU-145 prostate = test system: DU-145 prostate
SK-MEL-28 melanoma = test system: SK-MEL-28 melanoma
SK-OV-3 ovarian = test system: SK-OV-3 ovarian
IGROV1 ovarian = test system: IGROV1 ovarian
A498 renal = test system: A498 renal
UACC-62 melanoma = test system: UACC-62 melanoma
A549 NSCLC = test system: A549 NSCLC
SNB-19 CNS = test system: SNB-19 CNS
SN12C renal = test system: SN12C renal
CAKI-1 renal = test system: CAKI-1 renal
HT29 colon = test system: HT29 colon
CCRF-CEM leukemia = test system: CCRF-CEM leukemia
OVCAR-3 ovarian = test system: OVCAR-3 ovarian
SNB-75 CNS = test system: SNB-75 CNS
K-562 leukemia = test system: K-562 leukemia
SW-620 colon = test system: SW-620 colon
M14 melanoma = test system: M14 melanoma
HCC-2998 colon = test system: HCC-2998 colon
NCI-H226 lung = test system: NCI-H226 lung
MALME-3M melanoma = test system: MALME-3M melanoma
OVCAR-5 ovarian = test system: OVCAR-5 ovarian
MDA-MB-435 = test system: MDA-MB-435
RPMI-8226 leukemia = test system: RPMI-8226 leukemia
RXF 393 renal = test system: RXF 393 renal
T-47D breast = test system: T-47D breast
OVCAR-4 ovarian = test system: OVCAR-4 ovarian
NCI-H23 lung = test system: NCI-H23 lung
PC-3 prostate = test system: PC-3 prostate
EKVX NSCLC = test system: EKVX NSCLC
UO-31 renal = test system: UO-31 renal
HOP-92 NSCLC = test system: HOP-92 NSCLC
786-0 renal = test system: 786-0 renal
OVCAR-8 ovarian = test system: OVCAR-8 ovarian
SK-MEL-5 melanoma = test system: SK-MEL-5 melanoma
HL-60(TB) leukemia = test system: HL-60(TB) leukemia
NCI-H460 lung = test system: NCI-H460 lung
BT-549 breast = test system: BT-549 breast
HOP-62 NSCLC = test system: HOP-62 NSCLC
NCI-H522 lung = test system: NCI-H522 lung
SF-539 CNS = test system: SF-539 CNS
HCT-15 colon = test system: HCT-15 colon
SF-268 CNS = test system: SF-268 CNS
MCF7 breast = test system: MCF7 breast
ACHN renal = test system: ACHN renal
HCT-116 colon = test system: HCT-116 colon
HS 578T breast = test system: HS 578T breast
SF-295 CNS = test system: SF-295 CNS
NCI/ADR-RES ovarian = test system: NCI/ADR-RES ovarian
UACC-257 melanoma = test system: UACC-257 melanoma
SK-MEL-2 melanoma = test system: SK-MEL-2 melanoma
MOLT-4 leukemia = test system: MOLT-4 leukemia
COLO 205 colon = test system: COLO 205 colon
SR leukemia = test system: SR leukemia
TK-10 renal = test system: TK-10 renal
U251 CNS = test system: U251 CNS
KM12 colon = test system: KM12 colon
MDA-N = test system: MDA-N

## CN1c2ccc(O)c(O)c2-c2cc(O)cc3c2C1CCC3 (stereo not drawn)
LOX IMVI melanoma
  TGI: 26.3 µM
MDA-MB-231 breast
  TGI: > 66.1 µM
DU-145 prostate
  TGI: 30.6 µM
SK-MEL-28 melanoma
  TGI: 48.7 µM
SK-OV-3 ovarian
  TGI: > 100 µM
IGROV1 ovarian
  TGI: 27.9 µM
A498 renal
  TGI: > 100 µM
UACC-62 melanoma
  TGI: 32.3 µM
A549 NSCLC
  TGI: > 74.1 µM
SNB-19 CNS
  TGI: > 100 µM
SN12C renal
  TGI: 51.7 µM
CAKI-1 renal
  TGI: 48.9 µM
HT29 colon
  TGI: 66.2 µM
CCRF-CEM leukemia
  TGI: 9.61 µM
OVCAR-3 ovarian
  TGI: 19.5 µM
SNB-75 CNS
  TGI: 34.4 µM
K-562 leukemia
  TGI: 40.8 µM
SW-620 colon
  TGI: 63.5 µM
M14 melanoma
  TGI: 34.8 µM
HCC-2998 colon
  TGI: 49.1 µM
NCI-H226 lung
  TGI: > 60.2 µM
MALME-3M melanoma
  TGI: 31.3 µM
OVCAR-5 ovarian
  TGI: 50.7 µM
MDA-MB-435
  TGI: 31 µM
RPMI-8226 leukemia
  TGI: 25.8 µM
RXF 393 renal
  TGI: 24.3 µM
T-47D breast
  TGI: 42.6 µM
OVCAR-4 ovarian
  TGI: 28.4 µM
NCI-H23 lung
  TGI: 58.3 µM
PC-3 prostate
  TGI: 49.2 µM
EKVX NSCLC
  TGI: 46.9 µM
UO-31 renal
  TGI: 29.6 µM
HOP-92 NSCLC
  TGI: 33.3 µM
786-0 renal
  TGI: 35.5 µM
OVCAR-8 ovarian
  TGI: 65.6 µM
SK-MEL-5 melanoma
  TGI: 35.5 µM
HL-60(TB) leukemia
  TGI: 39.2 µM
NCI-H460 lung
  TGI: > 59.5 µM
BT-549 breast
  TGI: 39.8 µM
HOP-62 NSCLC
  TGI: 32.6 µM
NCI-H522 lung
  TGI: 28.4 µM
SF-539 CNS
  TGI: 42.2 µM
HCT-15 colon
  TGI: 59.4 µM
SF-268 CNS
  TGI: 33 µM
MCF7 breast
  TGI: 41.5 µM
ACHN renal
  TGI: 31.3 µM
HCT-116 colon
  TGI: 47.2 µM
HS 578T breast
  TGI: > 72.9 µM
SF-295 CNS
  TGI: > 100 µM
NCI/ADR-RES ovarian
  TGI: > 64.6 µM
UACC-257 melanoma
  TGI: 42.2 µM
SK-MEL-2 melanoma
  TGI: 58.6 µM
MOLT-4 leukemia
  TGI: 35.6 µM
COLO 205 colon
  TGI: 47.5 µM
SR leukemia
  TGI: 24.9 µM
TK-10 renal
  TGI: 32.9 µM
U251 CNS
  TGI: > 65 µM
KM12 colon
  TGI: > 61 µM
MDA-N
  TGI: 38.3 µM

## CCN(CC)CCCNc1[nH]ncc2cc3c(nc4ccc(OC)cc43)c(C)c12
LOX IMVI melanoma
  TGI: 15.8 µM
MDA-MB-231 breast
  TGI: 21.2 µM
DU-145 prostate
  TGI: 15.9 µM
SK-MEL-28 melanoma
  TGI: 30.8 µM
SK-OV-3 ovarian
  TGI: 22.3 µM
IGROV1 ovarian
  TGI: 19.5 µM
A498 renal
  TGI: 30.7 µM
UACC-62 melanoma
  TGI: 35.8 µM
A549 NSCLC
  TGI: 22.2 µM
SNB-19 CNS
  TGI: 18 µM
SN12C renal
  TGI: 18.7 µM
CAKI-1 renal
  TGI: 24.7 µM
HT29 colon
  TGI: 16.2 µM
CCRF-CEM leukemia
  TGI: 16.5 µM
OVCAR-3 ovarian
  TGI: 19.1 µM
SNB-75 CNS
  TGI: 23 µM
K-562 leukemia
  TGI: 16.3 µM
SW-620 colon
  TGI: 19.4 µM
M14 melanoma
  TGI: 25.6 µM
HCC-2998 colon
  TGI: 18.8 µM
NCI-H226 lung
  TGI: 22.6 µM
MALME-3M melanoma
  TGI: 28.3 µM
OVCAR-5 ovarian
  TGI: 24.8 µM
MDA-MB-435
  TGI: 23.1 µM
RPMI-8226 leukemia
  TGI: 46.8 µM
RXF 393 renal
  TGI: 17.7 µM
T-47D breast
  TGI: 26.5 µM
OVCAR-4 ovarian
  TGI: 13.8 µM
NCI-H23 lung
  TGI: 24.6 µM
PC-3 prostate
  TGI: 16.5 µM
EKVX NSCLC
  TGI: 31.4 µM
UO-31 renal
  TGI: 23.8 µM
HOP-92 NSCLC
  TGI: 29.8 µM
786-0 renal
  TGI: 15.4 µM
OVCAR-8 ovarian
  TGI: 18.9 µM
SK-MEL-5 melanoma
  TGI: 29.4 µM
HL-60(TB) leukemia
  TGI: 0.0166 µM
NCI-H460 lung
  TGI: 17 µM
BT-549 breast
  TGI: 30.9 µM
HOP-62 NSCLC
  TGI: 16.4 µM
NCI-H522 lung
  TGI: 17.4 µM
SF-539 CNS
  TGI: 15.2 µM
HCT-15 colon
  TGI: 41.3 µM
SF-268 CNS
  TGI: > 48.1 µM
MCF7 breast
  TGI: 16.6 µM
ACHN renal
  TGI: 20.9 µM
HCT-116 colon
  TGI: 13 µM
HS 578T breast
  TGI: 28.5 µM
SF-295 CNS
  TGI: 25.7 µM
NCI/ADR-RES ovarian
  TGI: > 100 µM
UACC-257 melanoma
  TGI: 33.7 µM
SK-MEL-2 melanoma
  TGI: 33.9 µM
MOLT-4 leukemia
  TGI: 10.9 µM
COLO 205 colon
  TGI: 21.2 µM
SR leukemia
  TGI: 33.1 µM
TK-10 renal
  TGI: 28.8 µM
U251 CNS
  TGI: 16 µM
KM12 colon
  TGI: 15.7 µM
MDA-N
  TGI: 22.3 µM
